# Measured values: US20190151341A1, “APPLICATION OF TENVERMECTIN FOR PREVENTING AND TREATING PARASITE INFECTION” (ZHEJIANG HISUN PHARMACEUTICAL CO., LTD., priority 2016, published 2019)
# Legend:
# Sarcoptes mites = experiment: Treatment of Sarcoptes mites of sheep (skin scrapings, live mites); type: in vivo; conditions: 1% injection 0.2 mg/kg bw s.c.; for Negative conversion number: sheep (10 per group); for Negative conversion rate (%): sheep
# From the text: Test agents: 1% ivermectin injection, 1% tenvermectin A injection and 1% tenvermectin B injection as obtained in Example 1.
# Test animals and grouping: sheep grazed under the same conditions were selected. Upon parasitological examination, 40 sheep which had been infected with sheep Sarcoptes mites were selected. The 40 sheep were randomly divided into 4 groups, 10 heads for each group. The first group was the ivermectin control group, the second group was the tenvermectin A group, and the third group was the tenvermectin B group. All the medicated groups were injected subcutaneously in the neck according to 0.2 mg/kg·bw. The fourth group was a blank group and was not medicated.
# Test methods: the changes of clinical symptoms were observed. The skin of sheep was scratched using a surgical blade with glycerin at the junction of the affected part and the healthy skin of the diseased sheep until the skin slightly bled. The skin scraps were taken then were placed in a dish and brought back to the laboratory. Then the skin scraps were placed on a slide, a drop of aqueous solution of 50% glycerol was added, and a cover slip was covered, and then the skin scraps were checked under a low magnification microscope. It was confirmed to be positive if live Sarcoptes mites were observed. Samples were taken before administration and at 1, 2, 3 and 4 weeks after administration to be examined. The samples were examined under a microscope, based on whether live mites were observed, the samples can be determined to be positive as long as one live mite was observed. Changes of clinical symptoms were observed as references.
# [1] = system: digestive tract nematodes; experiment: Repelling nematode in digestive track of sheep (fecal egg count); type: in vivo
# From the text: (§1) Test agents: 1% ivermectin injection, 1% tenvermectin A injection, and 1% tenvermectin B injection as obtained in Example 1.
# Test animals and grouping: sheep grazed under the same condition were selected, and 80 sheep of 0.8-2.0 years old naturally infected with digestive tract nematodes were selected through fecal examination. The average weight of the test sheep was 30 kg. The 80 sheep were randomly divided into 4 groups, 20 heads for each group. The first group was the ivermectin control group, the second group was the tenvermectin A group, and the third group was the tenvermectin B group. All the medicated groups were injected subcutaneously in the neck according to 0.2 mg/kg·bw. The fourth group was a blank group and was not medicated.
# 1) The feces of the sheep in each group were collected and examined one by one a day before administration, and the worm eggs were counted by the McMaster's method, and the number of eggs per gram of feces (EPG) was counted.
# 2) On the 9th day after administration, the sheep of each group were subjected to a fecal examination by McMaster's method, and EPG was counted.
# 3) The egg negative conversion rates and egg reduction rates were calculated according to a conventional method to assess the efficacy.
# [2] = system: allogynogenetic crucian carp; experiment: Toxicity to allogynogenetic crucian carp, semi-static method, 96 hours; type: in vivo
# From the text: Test fish and water: allogynogenetic crucian carp was purchased from Taowang Farm in Jiaojiang District, Taizhou City, with a body length of (9.60±0.52) cm and a body weight of (28.22±3.44) g. The healthy and vigorous fish with the same size were selected and temporarily raised in an indoor aquarium. They were domesticated for 7 days indoors before the test. The natural mortality rate was zero.
# 99.4% Tenvermectin A (the mass content of tenvermectin B was 0.02%) (Zhejiang Hisun Pharmaceutical Co., Ltd.);
# Tenvermectin (the mass ratio of tenvermectin A/tenvermectin B was 95/5) (Zhejiang Hisun Pharmaceutical Co., Ltd.);
# Tenvermectin (the mass ratio of tenvermectin A/tenvermectin B was 90/10) (Zhejiang Hisun Pharmaceutical Co., Ltd.);
# Tenvermectin (the mass ratio of tenvermectin A/tenvermectin B was 85/15) (Zhejiang Hisun Pharmaceutical Co., Ltd.);
# 99.1% Tenvermectin B (the mass content of tenvermectin A was 0.51%) (Zhejiang Hisun Pharmaceutical Co., Ltd.);
# 92% Avermectin (Zhejiang Qianjiang Biochemical Co., Ltd.);
# 96% Ivermectin (Zhejiang Hisun Pharmaceutical Co., Ltd.);
# 90% Methylamino avermectin benzoate (Emamectin benzoate) (Zhejiang Shenghua Biok Biotechnology Co., Ltd.).
# Method: semi-static method. […]
# swine Haematopinus = experiment: Killing effect on swine Haematopinus on the body surface; type: in vivo; conditions: pigs, 1% injection 0.2 mg/kg bw s.c., until the 7th day and in the following 3 weeks
# From the text: as §1
# (§2) Test animals and grouping: pigs cultured in the same farm were selected, and 40 pigs naturally infected with nematodes in the digestive tract were selected for testing through fecal examination. The average weight of the test pigs was 30-50 kg. Forty pigs were randomly divided into 4 groups, 10 for each group. The first group was the ivermectin control group, the second group was the tenvermectin A group, and the third group was the tenvermectin B group. All the medicated groups were injected subcutaneously in the neck according to 0.2 mg/kg·bw. The forth group was a blank group and was not administered.
# (§3) 1) The feces of the pigs in each group were collected and examined one by one a day before administration, and worm eggs were counted by the McMaster's method. The number of eggs per gram of feces (EPG) was counted and the condition of Haematopinus on the body surface was observed.
# (§4) 2) 1, 2, 3 and 4 weeks after administration, the feces of the pigs in each group were examined by the McMaster's method, and the EPG was counted and the changes of Haematopinus on the body surface were observed.
# 4) The killing effects of swine Haematopinus of the agents were assessed according to the survival of swine Haematopinus on the 7th day after administration.
# zebrafish = experiment: Toxicity to zebrafish, semi-static method, 96 hours; conditions: 8 h
# Protocol: Test agents: avermectin, milbemycin, ivermectin, tenvermectin A and tenvermectin B were all from Zhejiang Hisun Pharmaceutical Co., Ltd. The samples were formulated into 50 mg/ml mother liquors with DMF.
# Test fish and water: zebrafish (Brachydanio rerio) was purchased from Zhejiang Academy of Agricultural Sciences, with the same size, average body length of 2-3 cm and average body weight of 0.3 g. The zebrafish was domesticated for 7 days indoors before the test. […] Feeding was stopped 1 day before the test and the fish were not fed during the test. The test water was tap water with residual chlorine removed by exposure to the sun for more than 24 hours, and the pH thereof was 6.8.
# Test methods: semi-static method. Three level differences were provided for each sample: 0.5 ppm, 1.0 ppm and 1.5 ppm, and three parallel groups were provided for each level difference, 10 zebrafish were raised for each group, and blank controls (one group without agents and one group with only solvent) were provided. The corresponding volume of mother liquor was taken according to the concentration as required for each sample, and the volume of each sample was adjusted to 150 μl with DMF, and then each sample was added to the test group (containing 1.6 L of water). The room temperature was controlled at 22±2° C. for 96 hours, and the water was changed every 24 hours and the samples were re-added. The fish mortality rate was recorded for the first 8 hours and at 24, 48, 72 and 96 hours, and the dead fish were removed in time.
# [3] = system: swine nematode (nematodes in the digestive tract); experiment: Repelling swine nematode in naturally infected pigs (fecal egg count, McMaster's method); type: in vivo; conditions: 1% injection 0.2 mg/kg bw s.c.
# From the text: as §1, §2, §3, §4
# 3) The negative conversion rates and egg reduction rates of the test pigs were calculated by a conventional method to assess the efficacy of repelling swine nematode.
# [4] = sheep, 1% injection 0.2 mg/kg bw s.c., 9th day after administration
# [5] = allogynogenetic crucian carp, 0.5 ppm, 8 h
# [6] = allogynogenetic crucian carp, 1.0 ppm, 8 h
# [7] = allogynogenetic crucian carp, 2.0 ppm, 8 h
compound,measurement,setting,value
Ivermectin [reference compound],Negative conversion number,Sarcoptes mites; 1st week,7
same,Negative conversion number,Sarcoptes mites; 2nd week,9
same,Negative conversion number,Sarcoptes mites; 3rd week,10
same,Negative conversion number,Sarcoptes mites; 4th week,10
same,Negative conversion rate (%),Sarcoptes mites; 1st week,70%
same,Negative conversion rate (%),Sarcoptes mites; 2nd week,90%
same,Negative conversion rate (%),Sarcoptes mites; 3rd week,100%
same,Negative conversion rate (%),Sarcoptes mites; 4th week,100%
same,Number of sheep negatively conversed,"[1]; sheep (20 per group), 1% injection 0.2 mg/kg bw s.c., 9th day after administration",20
same,Egg reduction rate (%),[1]; [4],100%
same,Negative conversion rate (%),[1]; [4],100%
same,EPG after administration,"[1]; sheep, eggs per gram of feces, 0.2 mg/kg bw s.c., 9th day after administration",0
same,EPG before administration,"[1]; sheep, eggs per gram of feces, baseline a day before administration",9100
same,Survival condition (survival rates/%),[2]; [5],0%
same,Survival condition (survival rates/%),[2]; [6],0%
same,Survival condition (survival rates/%),[2]; [7],0%
same,active Haematopinus observed on the body surface,swine Haematopinus,no active Haematopinus was found
same,Survival condition (survival rates/%),zebrafish; 0.5 ppm,0%
same,Survival condition (survival rates/%),zebrafish; 1.0 ppm,0%
same,Survival condition (survival rates/%),zebrafish; 1.5 ppm,0%
same,Egg reduction rate (%),[3]; 1st week after administration,76.2%
same,Negative conversion rate (%),[3]; 1st week after administration,70%
same,Egg reduction rate (%),[3]; 2nd week after administration,91.2%
same,Negative conversion rate (%),[3]; 2nd week after administration,90%
same,Egg reduction rate (%),[3]; 3rd week after administration,100%
same,Negative conversion rate (%),[3]; 3rd week after administration,80%
same,Egg reduction rate (%),[3]; 4th week after administration,66.2%
same,Negative conversion rate (%),[3]; 4th week after administration,60%
"CC[C@H](C)C1O[C@]2(C=C[C@@H]1C)C[C@@H]1C[C@@H](C/C=C(\C)[C@@H](O[C@H]3C[C@H](OC)[C@@H](O[C@H]4C[C@H](OC)[C@H](NC)[C@H](C)O4)[C@H](C)O3)[C@@H](C)/C=C/C=C3\CO[C@@H]4[C@H](O)C(C)=C[C@@H](C(=O)O1)[C@]34O)O2.O=C(O)c1ccccc1 (some centres unmarked) [Methylamino avermectin benzoate, reference compound]",Survival condition (survival rates/%),[2]; [5],0%
same,Survival condition (survival rates/%),[2]; [6],0%
same,Survival condition (survival rates/%),[2]; [7],0%
same,Survival condition (survival rates/%),zebrafish; 0.5 ppm,0%
same,Survival condition (survival rates/%),zebrafish; 1.0 ppm,0%
same,Survival condition (survival rates/%),zebrafish; 1.5 ppm,0%
Milbemycin [reference compound],Survival condition (survival rates/%),[2]; in vivo,0%
same,Survival condition (survival rates/%),zebrafish; 0.5 ppm,0%
same,Survival condition (survival rates/%),zebrafish; 1.0 ppm,0%
same,Survival condition (survival rates/%),zebrafish; 1.5 ppm,0%
"CC[C@H](C)[C@H]1O[C@]2(C=C[C@@H]1C)C[C@@H]1C[C@@H](C/C=C(\C)[C@@H](O[C@H]3C[C@H](OC)[C@@H](O[C@H]4C[C@H](OC)[C@@H](O)[C@H](C)O4)[C@H](C)O3)[C@@H](C)/C=C/C=C3\CO[C@@H]4[C@H](O)C(C)=C[C@@H](C(=O)O1)[C@]34O)O2 [Avermectin, reference compound]",Survival condition (survival rates/%),[2]; [5],0%
same,Survival condition (survival rates/%),[2]; [6],0%
same,Survival condition (survival rates/%),[2]; [7],0%
same,Survival condition (survival rates/%),zebrafish; 0.5 ppm,0%
same,Survival condition (survival rates/%),zebrafish; 1.0 ppm,0%
same,Survival condition (survival rates/%),zebrafish; 1.5 ppm,0%
